Assay results taken from paper PMC8915595, “Revisiting the application of Immobilized Artificial Membrane (IAM) chromatography to estimate in vivo distribution properties of drug discovery compounds based on the model of marketed drugs” (ADMET & DMPK, 2020).
Read-outs that look alike come from different tables or passages of the source.

Experiments:
[1] = set-up: method as in earlier work; conditions: constant, isocratically determined and predefined values of the calibration set; cited from earlier work
[2] = IAM chromatography on new IAM.PC.DD2 columns (gradient HPLC, CHI (IAM)); assay type: physicochemical; set-up: key to CHI (IAM) “new” / P20511-014-3 CHI (IAM): CHI (IAM) from retention times calibrated to predefined CHI standards; conditions: for log K (IAM): constant values of the calibration set, CHI IAM converted to octanol/water lipophilicity scale by equation 7; for P20511-014-3 CHI (IAM): new IAM.PC.DD2 column batch P20511-014-3, pH 7.4; for R20511-014-3 CHI (IAM): new IAM.PC.DD2 column batch R20511-014-3, pH 7.4
Protocol: The IAM binding was measured using IAM.PC.DD2 HPLC columns (Regis Technologies, Inc., IL, USA) with dimensions of 100 x 4.6 mm, particle size 10 μm with 300 Å pore size.
Two batches of IAM.PC.DD2 columns were studied (R20511-014-3 and P20511-014-3) that had been prepared using the new batches of silica support.
The retention times were standardized using the IAM calibration mixture, containing octanophenone, heptanophenone, hexanophenone, valerophenone, butyrophenone, propiophenone, acetophenone, acetanilide and paracetamol. The retention times of the compounds were plotted against the isocratically determined and predefined CHI (IAM) values listed in Table 1. The slope and intercept of the obtained straight line was used to calculate the CHI IAM values of new compounds.

[3] = human
[4] = cited from earlier work; for CHI (IAM) from ref [13]: reference CHI (IAM), old columns
[5] = molecular target: T1, human serum albumin (HSA) (Homo sapiens, UniProt P02768); conditions: cited from earlier work
[6] = molecular target: T1, human serum albumin (HSA); test: Protein binding on chemically bonded HSA column (Chiralpak-HSA); conditions: remeasured in this study, pH 7.4
Protocol: Mobile phase A was 50 mM ammonium acetate adjusted to pH 7.4 and mobile phase B was 2-propanol. The flow rate was 1.5 mL/min and the run time was 6 min. The 2-propanol gradient was applied from 0 to 35% from 0 to 3.00 min and kept at 35% until 4.00 min.

T1 sequence (P02768 25-609): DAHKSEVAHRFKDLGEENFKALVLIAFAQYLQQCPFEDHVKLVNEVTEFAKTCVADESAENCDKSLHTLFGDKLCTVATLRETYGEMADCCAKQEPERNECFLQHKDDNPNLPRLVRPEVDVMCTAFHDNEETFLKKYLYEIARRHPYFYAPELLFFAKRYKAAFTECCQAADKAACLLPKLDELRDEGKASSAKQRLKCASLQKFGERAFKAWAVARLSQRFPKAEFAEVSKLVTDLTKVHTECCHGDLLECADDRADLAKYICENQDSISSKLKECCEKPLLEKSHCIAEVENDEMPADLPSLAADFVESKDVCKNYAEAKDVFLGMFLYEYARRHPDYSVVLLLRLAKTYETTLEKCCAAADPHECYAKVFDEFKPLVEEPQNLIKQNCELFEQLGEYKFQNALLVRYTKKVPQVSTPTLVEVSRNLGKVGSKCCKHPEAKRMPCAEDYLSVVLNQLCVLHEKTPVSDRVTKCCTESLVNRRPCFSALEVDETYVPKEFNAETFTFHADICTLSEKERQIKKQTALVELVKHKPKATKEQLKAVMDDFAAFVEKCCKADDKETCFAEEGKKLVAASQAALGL

CCCCC(=O)c1ccccc1 [Valerophenone]
CHI (IAM) [1]: 37.3
log K (IAM) [2]: 3.16

CCCCCCC(=O)c1ccccc1 [Heptanophenone]
CHI (IAM) [1]: 45.7
log K (IAM) [2]: 4.30

COc1cnc(NS(=O)(=O)c2ccc(N)cc2)nc1 [Sulfameter]
reference log Vdss [3]: -0.61
CHI (IAM) from ref [13] [4]: 3.70
log K HSA from ref [13] [5]: 4.09
log K HSA [6]: 2.44
P20511-014-3 CHI (IAM) [2]: 7.09
R20511-014-3 CHI (IAM) [2]: 6.92

CCC1(c2ccccc2)C(=O)NCNC1=O [Primidone]
reference log Vdss [3]: -0.15
CHI (IAM) from ref [13] [4]: 8.90
log K HSA from ref [13] [5]: 3.44
log K HSA [6]: 4.01
P20511-014-3 CHI (IAM) [2]: 10.49
R20511-014-3 CHI (IAM) [2]: 10.31

CC(C(=O)O)c1ccc(-c2ccccc2)c(F)c1 (stereo not shown) [Flurbiprofen]
reference log Vdss [3]: -1.56
CHI (IAM) from ref [13] [4]: 26.80
log K HSA from ref [13] [5]: 1.26
log K HSA [6]: 4.01
P20511-014-3 CHI (IAM) [2]: 30.89
R20511-014-3 CHI (IAM) [2]: 30.23

CC(=O)c1ccccc1 [Acetophenone]
CHI (IAM) [1]: 17.2
log K (IAM) [2]: 1.67

Cc1ccc(C)c(OCCCC(C)(C)C(=O)O)c1 [Gemfibrozil]
reference log Vdss [3]: -1.34
CHI (IAM) from ref [13] [4]: 32.90
log K HSA from ref [13] [5]: 3.32
log K HSA [6]: 4.05
P20511-014-3 CHI (IAM) [2]: 34.53
R20511-014-3 CHI (IAM) [2]: 33.70

CCCCCC(=O)c1ccccc1 [Hexanophenone]
CHI (IAM) [1]: 41.8
log K (IAM) [2]: 3.71

Cc1c(Cl)cccc1Nc1ccccc1C(=O)O [Tolfenamic Acid]
reference log Vdss [3]: -0.76
CHI (IAM) from ref [13] [4]: 36.60
log K HSA from ref [13] [5]: 2.46
log K HSA [6]: 6.60
P20511-014-3 CHI (IAM) [2]: 41.53
R20511-014-3 CHI (IAM) [2]: 40.72

CCCC(=O)c1ccccc1 [Butyrophenone]
CHI (IAM) [1]: 32.0
log K (IAM) [2]: 2.62

Nc1ccc(S(=O)(=O)Nc2ccc(Cl)nn2)cc1 [Sulfachlorpyridazine]
reference log Vdss [3]: -0.76
CHI (IAM) from ref [13] [4]: 6.00
log K HSA from ref [13] [5]: 2.04
log K HSA [6]: 2.20
P20511-014-3 CHI (IAM) [2]: 10.83
R20511-014-3 CHI (IAM) [2]: 10.08

COC1=CC(=O)C[C@@H](C)[C@]12Oc1c(Cl)c(OC)cc(OC)c1C2=O [Griseofulvin]
reference log Vdss [3]: 0.12
CHI (IAM) from ref [13] [4]: 33.10
log K HSA from ref [13] [5]: 0.77
log K HSA [6]: 0.80
P20511-014-3 CHI (IAM) [2]: 30.98
R20511-014-3 CHI (IAM) [2]: 31.06

CC(=O)Nc1ccc(O)cc1 [Paracetamol]
CHI (IAM) [1]: 2.90
log K (IAM) [2]: 1.20

C=CCOc1ccc(CC(=O)O)cc1Cl [Alclofenac]
reference log Vdss [3]: -1.1
CHI (IAM) from ref [13] [4]: 17.80
log K HSA from ref [13] [5]: 5.11
log K HSA [6]: 5.40
P20511-014-3 CHI (IAM) [2]: 21.63
R20511-014-3 CHI (IAM) [2]: 20.47

CC(C)(C)NCC(O)COc1cccc2c1CC(O)C(O)C2 (stereo not shown) [Nadolol]
reference log Vdss [3]: -0.33
CHI (IAM) from ref [13] [4]: 20.20
log K HSA from ref [13] [5]: 2.93
log K HSA [6]: 3.55
P20511-014-3 CHI (IAM) [2]: 19.23
R20511-014-3 CHI (IAM) [2]: 19.89

CCC(=O)c1ccccc1 [Propiophenone]
CHI (IAM) [1]: 25.9
log K (IAM) [2]: 2.15

COC(=O)C1=C(C)NC(C)=C(C(=O)OC(C)C)C1c1cccc2nonc12 (stereo not shown) [Isradipine]
reference log Vdss [3]: 0.13
CHI (IAM) from ref [13] [4]: 40.00
log K HSA from ref [13] [5]: 2.9
log K HSA [6]: 3.30
P20511-014-3 CHI (IAM) [2]: 39.16
R20511-014-3 CHI (IAM) [2]: 39.11

CC(=O)Nc1ccccc1 [Acetanilide]
reference log Vdss [3]: -0.13
CHI (IAM) from ref [13] [4]: 10.70
CHI (IAM) [1]: 11.5
log K HSA from ref [13] [5]: 0.62
log K HSA [6]: 0.43
log K (IAM) [2]: 1.45
P20511-014-3 CHI (IAM) [2]: 11.50
R20511-014-3 CHI (IAM) [2]: 11.55

CCCN(CCC)S(=O)(=O)c1ccc(C(=O)O)cc1 [Probenecid]
reference log Vdss [3]: -0.75
CHI (IAM) from ref [13] [4]: 20.10
log K HSA from ref [13] [5]: 0.76
log K HSA [6]: 0.49
P20511-014-3 CHI (IAM) [2]: 24.38
R20511-014-3 CHI (IAM) [2]: 23.45

NC(N)=Nc1nc(CSCCC(N)=NS(N)(=O)=O)cs1 [Famotidine]
reference log Vdss [3]: -0.06
CHI (IAM) from ref [13] [4]: 15.70
log K HSA from ref [13] [5]: 1.39
log K HSA [6]: 3.43
P20511-014-3 CHI (IAM) [2]: 16.08
R20511-014-3 CHI (IAM) [2]: 16.82

Cc1ncc([N+](=O)[O-])n1CCO [Metronidazole]
reference log Vdss [3]: -0.25
CHI (IAM) from ref [13] [4]: -3.30
log K HSA from ref [13] [5]: 0.66
log K HSA [6]: 0.72
P20511-014-3 CHI (IAM) [2]: -3.24
R20511-014-3 CHI (IAM) [2]: -2.71

CC(C)NCC(O)COc1cccc2[nH]ccc12 (stereo not shown) [Pindolol]
reference log Vdss [3]: 0.85
CHI (IAM) from ref [13] [4]: 42.00
log K HSA from ref [13] [5]: 1.81
log K HSA [6]: 2.40
outlier in correlation of reference CHI (IAM) with CHI (IAM) on column R20511-014-3 ([2]; lower CHI (IAM) on new batches, outlier if difference greater than 7.2 CHI IAM units): outliers
P20511-014-3 CHI (IAM) [2]: 25.31
R20511-014-3 CHI (IAM) [2]: 25.69

CC(=O)CCCCn1c(=O)c2c(ncn2C)n(C)c1=O [Pentoxifylline]
reference log Vdss [3]: -0.1
CHI (IAM) from ref [13] [4]: 12.00
log K HSA from ref [13] [5]: 3.27
log K HSA [6]: 4.03
P20511-014-3 CHI (IAM) [2]: 13.87
R20511-014-3 CHI (IAM) [2]: 14.04

CCCCCCCC(=O)c1ccccc1 [Octanophenone]
CHI (IAM) [1]: 49.4
log K (IAM) [2]: 4.97

NC(=O)N1c2ccccc2C=Cc2ccccc21 [Carbamazepine]
reference log Vdss [3]: -0.09
CHI (IAM) from ref [13] [4]: 26.50
log K HSA from ref [13] [5]: 1.99
log K HSA [6]: 1.81
P20511-014-3 CHI (IAM) [2]: 27.07
R20511-014-3 CHI (IAM) [2]: 27.18
CHI (IAM) deviation between reference and new IAM.PC.DD2 columns ([2]; system suitability test compounds): very similar
CHI (IAM) “new” ([2]; system suitability test compounds, new IAM.PC.DD2 columns, pH 7.4): 27.0

Cc1cc(C)nc(NS(=O)(=O)c2ccc(N)cc2)n1 [Sulphadimidine]
reference log Vdss [3]: 0.22
CHI (IAM) ([4]; previously published, IAM column manufactured 2004-2012): 34.6
CHI (IAM) from ref [13] [4]: 34.55
log K HSA from ref [13] [5]: 0.75
log K HSA [6]: 1.72
P20511-014-3 CHI (IAM) [2]: 11.09
R20511-014-3 CHI (IAM) [2]: 10.89

Cc1onc(-c2c(F)cccc2Cl)c1C(=O)N[C@@H]1C(=O)N2[C@@H]1SC(C)(C)[C@@H]2C(=O)O [Floxacillin]
reference log Vdss [3]: -0.56
CHI (IAM) from ref [13] [4]: 23.40
log K HSA from ref [13] [5]: 0.56
log K HSA [6]: 0.65
P20511-014-3 CHI (IAM) [2]: 24.59
R20511-014-3 CHI (IAM) [2]: 23.76
